# Source: PMC3445516 (PLoS ONE, 2012)
# What was measured:
# [1] = system: LPS-stimulated TNFα synthesis; parameters: method as in PMID 14561090; details: acute rat model of LPS-stimulated TNFα synthesis; cited from earlier work
# p38α = p38α (Homo sapiens, UniProt Q16539); details: 10 and 100 nM
# Method: Phosphorylation of 3.5 µg of p38 substrate was detected in a reaction having 1 µCi [γ-^32P] ATP (Perkin Elmer Life Sciences), 50 µM ATP, 50 ng active recombinant p38 in 50 µL kinase buffer containing 25 mM Tris-HCl, pH 7.5, 10 mM MgCl2, 5 mM β-glycerophosphate, 0.1 mM Na3VO4 and 2 mM DTT. The reaction was incubated at 30°C for 10 minutes and 25 µL of the reaction was spotted on Whatman P81 filter paper. The filter paper was washed 3 times in 0.5% phosphoric acid, air dried and counted using Beckman LS6500 multipurpose scintillation counter. Percent p38 inhibition was graphed using GraphPad Prism software 5.0.
# DRAK1 = biological target: T1, DRAK1 (Homo sapiens, UniProt Q9UEE5); test: Ambit kinase profiling, competition binding; details: compound concentration 10 uM, read-out: Percent Competition
# T1 construct: purchased Ambit Biosciences (KINOMEscan)
# Excerpt: (§1) Supplement pone.0044653.s004.xls, sheet "Compound 122" | column: Percent Competition
# MYO3B = biological target: T2, MYO3B (Homo sapiens, UniProt Q8WXR4); test: Ambit kinase profiling, competition binding; details: compound concentration 10 uM, read-out: Percent Competition
# T2 construct: purchased Ambit Biosciences (KINOMEscan)
# Excerpt: as §1
# FGFR3(G697C) = biological target: T3, FGFR3(G697C) (Homo sapiens, UniProt P22607, G697C); test: Ambit kinase profiling, competition binding; details: compound concentration 10 uM, read-out: Percent Competition
# T3 construct: purchased Ambit Biosciences (KINOMEscan)
# Excerpt: as §1
# MARK4 = biological target: T4, MARK4 (Homo sapiens, UniProt Q96L34); test: Ambit kinase profiling, competition binding; details: compound concentration 10 uM
# T4 construct: purchased Ambit Biosciences (KINOMEscan)
# Excerpt: as §1
# PIK3CA(E545K) = biological target: T5, PIK3CA(E545K) (Homo sapiens, UniProt P42336, E545K); test: Ambit kinase profiling, competition binding; details: compound concentration 10 uM, read-out: Percent Competition
# T5 construct: purchased Ambit Biosciences (KINOMEscan)
# Excerpt: as §1
# ACVR2A = biological target: T6, ACVR2A (Homo sapiens, UniProt P27037); test: Ambit kinase profiling, competition binding; details: compound concentration 10 uM, read-out: Percent Competition
# T6 construct: purchased Ambit Biosciences (KINOMEscan)
# Excerpt: as §1
# IKK-alpha = biological target: T7, IKK-alpha (Homo sapiens, UniProt O15111); test: Ambit kinase profiling, competition binding; details: compound concentration 10 uM, read-out: Percent Competition
# T7 construct: purchased Ambit Biosciences (KINOMEscan)
# Excerpt: as §1
# PAK2 = biological target: T8, PAK2 (Homo sapiens, UniProt Q13177); test: Ambit kinase profiling, competition binding; details: compound concentration 10 uM, read-out: Percent Competition
# T8 construct: purchased Ambit Biosciences (KINOMEscan)
# Excerpt: as §1
# MEK1 = biological target: T9, MEK1 (Homo sapiens, UniProt Q02750); test: Ambit kinase profiling, competition binding; details: compound concentration 10 uM, read-out: Percent Competition
# T9 construct: purchased Ambit Biosciences (KINOMEscan)
# Excerpt: as §1
# FGFR2 = biological target: T10, FGFR2 (Homo sapiens, UniProt P21802); test: Ambit kinase profiling, competition binding; details: compound concentration 10 uM, read-out: Percent Competition
# T10 construct: purchased Ambit Biosciences (KINOMEscan)
# Excerpt: as §1
# CDK11 = biological target: T11, CDK11 (Homo sapiens, UniProt Q9BWU1); test: Ambit kinase profiling, competition binding; details: compound concentration 10 uM
# T11 construct: purchased Ambit Biosciences (KINOMEscan)
# Excerpt: as §1
# PRKG1 = biological target: T12, PRKG1 (Homo sapiens, UniProt Q13976); test: Ambit kinase profiling, competition binding; details: compound concentration 10 uM, read-out: Percent Competition
# T12 construct: purchased Ambit Biosciences (KINOMEscan)
# Excerpt: as §1
# FAK = biological target: T13, FAK (Homo sapiens, UniProt Q05397); test: Ambit kinase profiling, competition binding; details: compound concentration 10 uM, read-out: Percent Competition
# T13 construct: purchased Ambit Biosciences (KINOMEscan)
# Excerpt: as §1
# ABL1(E255K) = biological target: T14, ABL1(E255K) (Homo sapiens, UniProt P00519, E255K); test: Ambit kinase profiling, competition binding; details: compound concentration 10 uM, read-out: Percent Competition
# T14 construct: purchased Ambit Biosciences (KINOMEscan)
# Excerpt: as §1
# SgK110 = biological target: T15, SgK110 (Homo sapiens, UniProt P0C264); test: Ambit kinase profiling, competition binding; details: compound concentration 10 uM, read-out: Percent Competition
# T15 construct: purchased Ambit Biosciences (KINOMEscan)
# Excerpt: as §1
# MKNK2 = biological target: T16, MKNK2 (Homo sapiens, UniProt Q9HBH9); test: Ambit kinase profiling, competition binding; details: compound concentration 10 uM, read-out: Percent Competition
# T16 construct: purchased Ambit Biosciences (KINOMEscan)
# Excerpt: as §1
# TNK1 = biological target: T17, TNK1 (Homo sapiens, UniProt Q13470); test: Ambit kinase profiling, competition binding; details: compound concentration 10 uM, read-out: Percent Competition
# T17 construct: purchased Ambit Biosciences (KINOMEscan)
# Excerpt: as §1
# FER = biological target: T18, FER (Homo sapiens, UniProt P16591); test: Ambit kinase profiling, competition binding; details: compound concentration 10 uM, read-out: Percent Competition
# T18 construct: purchased Ambit Biosciences (KINOMEscan)
# Excerpt: as §1
# SIK = biological target: T19, SIK (Homo sapiens, UniProt P57059); test: Ambit kinase profiling, competition binding; details: compound concentration 10 uM
# T19 construct: purchased Ambit Biosciences (KINOMEscan)
# Excerpt: as §1
# ULK1 = biological target: T20, ULK1 (Homo sapiens, UniProt O75385); test: Ambit kinase profiling, competition binding; details: compound concentration 10 uM
# T20 construct: purchased Ambit Biosciences (KINOMEscan)
# Excerpt: as §1
# MKNK1 = biological target: T21, MKNK1 (Homo sapiens, UniProt Q9BUB5); test: Ambit kinase profiling, competition binding; details: compound concentration 10 uM, read-out: Percent Competition
# T21 construct: purchased Ambit Biosciences (KINOMEscan)
# Excerpt: as §1
# TRKC = biological target: T22, TRKC (Homo sapiens, UniProt Q16288); test: Ambit kinase profiling, competition binding; details: compound concentration 10 uM, read-out: Percent Competition
# T22 construct: purchased Ambit Biosciences (KINOMEscan)
# Excerpt: as §1
# CAMKK2 = biological target: T23, CAMKK2 (Homo sapiens, UniProt Q96RR4); test: Ambit kinase profiling, competition binding; details: compound concentration 10 uM, read-out: Percent Competition
# T23 construct: purchased Ambit Biosciences (KINOMEscan)
# Excerpt: as §1
# HCK = biological target: T24, HCK (Homo sapiens, UniProt P08631); test: Ambit kinase profiling, competition binding; details: compound concentration 10 uM, read-out: Percent Competition
# T24 construct: purchased Ambit Biosciences (KINOMEscan)
# Excerpt: as §1
# SRMS = biological target: T25, SRMS (Homo sapiens, UniProt Q9H3Y6); test: Ambit kinase profiling, competition binding; details: compound concentration 10 uM, read-out: Percent Competition
# T25 construct: purchased Ambit Biosciences (KINOMEscan)
# Excerpt: as §1
# TLK2 = biological target: T26, TLK2 (Homo sapiens, UniProt Q86UE8); test: Ambit kinase profiling, competition binding; details: compound concentration 10 uM, read-out: Percent Competition
# T26 construct: purchased Ambit Biosciences (KINOMEscan)
# Excerpt: as §1
# SRPK3 = biological target: T27, SRPK3 (Homo sapiens, UniProt Q9UPE1); test: Ambit kinase profiling, competition binding; details: compound concentration 10 uM, read-out: Percent Competition
# T27 construct: purchased Ambit Biosciences (KINOMEscan)
# Excerpt: as §1
# MST2 = biological target: T28, MST2 (Homo sapiens, UniProt Q13188); test: Ambit kinase profiling, competition binding; details: compound concentration 10 uM, read-out: Percent Competition
# T28 construct: purchased Ambit Biosciences (KINOMEscan)
# Excerpt: as §1
# DAPK2 = biological target: T29, DAPK2 (Homo sapiens, UniProt Q9UIK4); test: Ambit kinase profiling, competition binding; details: compound concentration 10 uM, read-out: Percent Competition
# T29 construct: purchased Ambit Biosciences (KINOMEscan)
# Excerpt: as §1
# ULK3 = biological target: T30, ULK3 (Homo sapiens, UniProt Q6PHR2); test: Ambit kinase profiling, competition binding; details: compound concentration 10 uM
# T30 construct: purchased Ambit Biosciences (KINOMEscan)
# Excerpt: as §1
# FLT3(N841I) = biological target: T31, FLT3(N841I) (Homo sapiens, UniProt P36888, N841I); test: Ambit kinase profiling, competition binding; details: compound concentration 10 uM, read-out: Percent Competition
# T31 construct: purchased Ambit Biosciences (KINOMEscan)
# Excerpt: as §1
# [2] = biological target: T32, TYK2(JH1domain-catalytic) (Homo sapiens, UniProt P29597); test: Ambit kinase profiling, competition binding; details: compound concentration 10 uM
# T32 construct: TYK2(JH1domain-catalytic); purchased Ambit Biosciences (KINOMEscan)
# Excerpt: as §1
# PKN1 = biological target: T33, PKN1 (Homo sapiens, UniProt Q16512); test: Ambit kinase profiling, competition binding; details: compound concentration 10 uM, read-out: Percent Competition
# T33 construct: purchased Ambit Biosciences (KINOMEscan)
# Excerpt: as §1
# MAP3K4 = biological target: T34, MAP3K4 (Homo sapiens, UniProt Q9Y6R4); test: Ambit kinase profiling, competition binding; details: compound concentration 10 uM, read-out: Percent Competition
# T34 construct: purchased Ambit Biosciences (KINOMEscan)
# Excerpt: as §1
# FLT3(ITD) = test: Ambit kinase profiling, competition binding; parameters: species or system human; details: compound concentration 10 uM
# Excerpt: as §1
# T5 sequence (P42336 whole entry E545K): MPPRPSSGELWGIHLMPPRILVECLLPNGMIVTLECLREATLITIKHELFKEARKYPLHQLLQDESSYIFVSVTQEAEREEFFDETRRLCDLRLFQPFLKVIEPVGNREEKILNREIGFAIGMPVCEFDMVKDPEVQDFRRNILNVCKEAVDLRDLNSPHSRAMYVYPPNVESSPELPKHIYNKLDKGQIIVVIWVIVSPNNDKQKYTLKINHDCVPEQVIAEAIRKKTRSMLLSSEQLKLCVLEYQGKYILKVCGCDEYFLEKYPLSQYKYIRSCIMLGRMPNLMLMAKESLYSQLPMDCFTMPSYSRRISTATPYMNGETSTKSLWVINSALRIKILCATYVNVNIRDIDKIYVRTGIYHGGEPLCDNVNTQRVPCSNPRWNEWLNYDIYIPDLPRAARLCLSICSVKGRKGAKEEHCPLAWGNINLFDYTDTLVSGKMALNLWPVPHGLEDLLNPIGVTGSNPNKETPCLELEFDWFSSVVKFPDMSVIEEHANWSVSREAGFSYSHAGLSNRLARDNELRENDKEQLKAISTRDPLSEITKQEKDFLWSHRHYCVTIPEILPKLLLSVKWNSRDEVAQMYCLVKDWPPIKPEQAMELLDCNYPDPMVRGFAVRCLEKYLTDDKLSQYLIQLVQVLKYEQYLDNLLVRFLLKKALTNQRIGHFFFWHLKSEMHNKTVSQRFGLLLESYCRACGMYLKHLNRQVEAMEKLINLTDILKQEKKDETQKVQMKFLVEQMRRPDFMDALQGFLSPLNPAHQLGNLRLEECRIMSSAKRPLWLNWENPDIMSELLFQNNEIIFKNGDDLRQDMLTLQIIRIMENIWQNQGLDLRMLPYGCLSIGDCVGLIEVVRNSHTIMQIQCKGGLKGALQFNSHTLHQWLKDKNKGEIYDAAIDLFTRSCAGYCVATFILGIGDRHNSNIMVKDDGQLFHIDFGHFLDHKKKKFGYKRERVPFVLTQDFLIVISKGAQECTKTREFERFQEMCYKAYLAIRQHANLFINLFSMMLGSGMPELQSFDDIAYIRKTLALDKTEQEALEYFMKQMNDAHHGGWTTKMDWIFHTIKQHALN
# T9 sequence (Q02750 whole entry): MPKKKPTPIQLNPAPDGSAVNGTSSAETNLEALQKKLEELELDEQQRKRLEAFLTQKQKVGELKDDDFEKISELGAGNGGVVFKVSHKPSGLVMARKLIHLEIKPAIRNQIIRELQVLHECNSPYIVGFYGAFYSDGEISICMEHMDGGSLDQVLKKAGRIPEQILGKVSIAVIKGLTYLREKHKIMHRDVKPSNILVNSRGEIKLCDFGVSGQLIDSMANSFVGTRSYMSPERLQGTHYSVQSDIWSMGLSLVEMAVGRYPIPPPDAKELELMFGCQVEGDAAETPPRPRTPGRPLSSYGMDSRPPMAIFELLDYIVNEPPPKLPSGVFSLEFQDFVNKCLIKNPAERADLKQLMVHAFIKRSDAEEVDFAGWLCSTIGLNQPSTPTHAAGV
# T34 sequence (Q9Y6R4 whole entry): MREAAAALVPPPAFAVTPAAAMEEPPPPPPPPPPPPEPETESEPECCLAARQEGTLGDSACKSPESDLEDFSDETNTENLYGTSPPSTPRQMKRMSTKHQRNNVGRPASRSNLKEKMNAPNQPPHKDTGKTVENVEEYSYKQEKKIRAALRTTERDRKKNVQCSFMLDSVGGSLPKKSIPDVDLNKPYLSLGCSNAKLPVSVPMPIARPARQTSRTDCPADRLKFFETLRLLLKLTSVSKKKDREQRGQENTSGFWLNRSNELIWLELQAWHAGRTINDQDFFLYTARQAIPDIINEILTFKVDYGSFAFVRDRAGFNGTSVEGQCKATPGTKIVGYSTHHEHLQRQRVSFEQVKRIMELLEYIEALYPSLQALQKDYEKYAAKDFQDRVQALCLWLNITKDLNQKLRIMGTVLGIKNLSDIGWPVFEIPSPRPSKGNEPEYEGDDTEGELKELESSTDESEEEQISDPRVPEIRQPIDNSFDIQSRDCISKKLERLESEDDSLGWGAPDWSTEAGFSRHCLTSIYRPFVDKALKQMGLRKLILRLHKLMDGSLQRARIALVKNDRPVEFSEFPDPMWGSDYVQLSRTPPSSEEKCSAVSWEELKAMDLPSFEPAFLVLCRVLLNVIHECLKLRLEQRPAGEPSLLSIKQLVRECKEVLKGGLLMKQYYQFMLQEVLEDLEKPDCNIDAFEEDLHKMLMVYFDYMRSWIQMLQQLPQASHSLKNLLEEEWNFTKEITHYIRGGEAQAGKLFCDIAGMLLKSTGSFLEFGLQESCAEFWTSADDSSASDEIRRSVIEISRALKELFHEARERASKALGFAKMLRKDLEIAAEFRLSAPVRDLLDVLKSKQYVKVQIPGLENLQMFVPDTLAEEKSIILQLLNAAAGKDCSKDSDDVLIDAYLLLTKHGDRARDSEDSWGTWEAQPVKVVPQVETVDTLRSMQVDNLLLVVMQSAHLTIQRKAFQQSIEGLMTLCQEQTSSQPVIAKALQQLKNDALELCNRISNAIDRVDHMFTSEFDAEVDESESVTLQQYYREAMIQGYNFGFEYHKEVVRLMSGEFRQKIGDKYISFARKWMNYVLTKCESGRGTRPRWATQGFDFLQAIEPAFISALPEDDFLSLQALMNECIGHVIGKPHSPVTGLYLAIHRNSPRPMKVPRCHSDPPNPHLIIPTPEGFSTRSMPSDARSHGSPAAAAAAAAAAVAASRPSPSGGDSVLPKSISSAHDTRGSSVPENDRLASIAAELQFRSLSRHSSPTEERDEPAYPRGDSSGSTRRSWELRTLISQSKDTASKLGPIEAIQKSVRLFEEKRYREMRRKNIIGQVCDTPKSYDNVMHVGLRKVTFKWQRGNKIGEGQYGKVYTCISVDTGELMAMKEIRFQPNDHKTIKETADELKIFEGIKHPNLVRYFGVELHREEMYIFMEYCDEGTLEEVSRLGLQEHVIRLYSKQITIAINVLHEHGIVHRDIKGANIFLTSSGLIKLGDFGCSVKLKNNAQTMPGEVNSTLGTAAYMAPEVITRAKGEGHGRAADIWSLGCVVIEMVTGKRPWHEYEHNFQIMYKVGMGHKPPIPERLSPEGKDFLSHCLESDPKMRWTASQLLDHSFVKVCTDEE
# T11 sequence (Q9BWU1 whole entry): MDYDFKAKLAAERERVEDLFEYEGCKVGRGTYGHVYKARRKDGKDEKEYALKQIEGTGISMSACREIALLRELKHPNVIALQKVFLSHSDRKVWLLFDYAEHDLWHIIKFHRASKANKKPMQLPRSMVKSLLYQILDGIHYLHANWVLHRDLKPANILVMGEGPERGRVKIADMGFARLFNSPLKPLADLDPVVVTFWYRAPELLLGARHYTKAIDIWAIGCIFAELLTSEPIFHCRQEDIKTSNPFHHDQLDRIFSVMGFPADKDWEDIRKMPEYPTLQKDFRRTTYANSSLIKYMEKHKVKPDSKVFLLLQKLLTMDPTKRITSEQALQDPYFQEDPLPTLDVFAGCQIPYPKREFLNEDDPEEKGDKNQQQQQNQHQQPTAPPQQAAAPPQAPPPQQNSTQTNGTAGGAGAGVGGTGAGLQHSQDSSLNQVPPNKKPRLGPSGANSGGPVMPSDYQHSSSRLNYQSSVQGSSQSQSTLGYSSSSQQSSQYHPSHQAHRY
# T27 sequence (Q9UPE1 whole entry): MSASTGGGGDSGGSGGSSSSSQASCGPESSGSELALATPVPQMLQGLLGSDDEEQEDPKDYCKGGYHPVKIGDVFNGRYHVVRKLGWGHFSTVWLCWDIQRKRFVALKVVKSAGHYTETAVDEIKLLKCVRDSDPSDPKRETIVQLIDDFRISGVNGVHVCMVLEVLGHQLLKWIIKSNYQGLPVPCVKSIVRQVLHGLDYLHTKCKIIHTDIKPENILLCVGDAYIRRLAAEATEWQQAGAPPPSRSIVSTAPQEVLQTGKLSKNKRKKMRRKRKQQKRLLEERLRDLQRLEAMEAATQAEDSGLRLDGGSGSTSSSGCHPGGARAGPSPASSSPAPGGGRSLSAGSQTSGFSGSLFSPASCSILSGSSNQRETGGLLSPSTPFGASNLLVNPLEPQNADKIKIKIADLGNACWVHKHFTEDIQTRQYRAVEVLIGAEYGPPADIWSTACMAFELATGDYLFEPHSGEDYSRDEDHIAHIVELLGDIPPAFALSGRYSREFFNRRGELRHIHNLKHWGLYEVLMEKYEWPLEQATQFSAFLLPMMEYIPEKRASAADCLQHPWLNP
# T8 sequence (Q13177 whole entry): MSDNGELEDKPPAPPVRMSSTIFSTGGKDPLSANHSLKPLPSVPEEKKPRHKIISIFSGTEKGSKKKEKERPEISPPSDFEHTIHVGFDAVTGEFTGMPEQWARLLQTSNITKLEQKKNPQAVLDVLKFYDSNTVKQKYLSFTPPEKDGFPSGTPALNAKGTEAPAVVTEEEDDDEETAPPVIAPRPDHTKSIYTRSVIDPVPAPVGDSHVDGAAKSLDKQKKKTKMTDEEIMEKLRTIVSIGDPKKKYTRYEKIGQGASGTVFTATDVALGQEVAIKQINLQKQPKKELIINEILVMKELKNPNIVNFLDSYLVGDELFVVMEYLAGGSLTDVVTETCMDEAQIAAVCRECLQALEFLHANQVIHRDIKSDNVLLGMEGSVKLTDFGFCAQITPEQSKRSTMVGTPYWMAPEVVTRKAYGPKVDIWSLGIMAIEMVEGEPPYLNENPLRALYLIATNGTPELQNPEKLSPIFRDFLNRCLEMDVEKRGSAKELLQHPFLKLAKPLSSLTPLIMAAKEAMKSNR
# T32 sequence (P29597 885-1187 limits assumed): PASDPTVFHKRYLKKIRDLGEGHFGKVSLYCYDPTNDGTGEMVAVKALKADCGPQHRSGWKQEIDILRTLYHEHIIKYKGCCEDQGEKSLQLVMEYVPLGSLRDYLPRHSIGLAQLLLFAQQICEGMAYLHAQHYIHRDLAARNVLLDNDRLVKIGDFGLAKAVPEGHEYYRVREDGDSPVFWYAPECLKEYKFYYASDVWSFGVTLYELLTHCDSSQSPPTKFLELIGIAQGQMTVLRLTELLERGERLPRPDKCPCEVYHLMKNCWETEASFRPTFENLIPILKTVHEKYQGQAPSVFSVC
smiles,measurement,setting,value
CC(O)CNc1cc(-c2[nH]c3cccnc3c2-c2ccc(F)cc2)ccn1 (stereo not shown) [Compound 140],in vivo efficacy,[1],in vivo efficacy has been demonstrated
same,inhibition of p38α,p38α,most potent
Fc1ccc(-c2c(-c3ccncc3)[nH]c3nccnc23)cc1 [RO1155697-000-005],inhibition at 10 µM,DRAK1,< 50%
same,inhibition at 10 µM,MYO3B,< 50%
same,inhibition at 10 µM,FGFR3(G697C),< 50%
same,Percent Competition,MARK4,<50%
same,inhibition at 10 µM,PIK3CA(E545K),< 50%
same,inhibition at 10 µM,ACVR2A,< 50%
same,inhibition at 10 µM,IKK-alpha,< 50%
same,inhibition at 10 µM,PAK2,< 50%
same,inhibition at 10 µM,MEK1,< 50%
same,inhibition at 10 µM,FGFR2,< 50%
same,Percent Competition,CDK11,<50%
same,inhibition at 10 µM,PRKG1,< 50%
same,inhibition at 10 µM,FAK,< 50%
same,inhibition at 10 µM,ABL1(E255K),< 50%
same,inhibition at 10 µM,SgK110,< 50%
same,inhibition at 10 µM,MKNK2,< 50%
same,inhibition at 10 µM,TNK1,< 50%
same,inhibition at 10 µM,FER,< 50%
same,Percent Competition,SIK,<50%
same,Percent Competition,ULK1,<50%
same,inhibition at 10 µM,MKNK1,< 50%
same,inhibition at 10 µM,TRKC,< 50%
same,inhibition at 10 µM,CAMKK2,< 50%
same,inhibition at 10 µM,HCK,< 50%
same,inhibition at 10 µM,SRMS,< 50%
same,inhibition at 10 µM,TLK2,< 50%
same,inhibition at 10 µM,SRPK3,< 50%
same,inhibition at 10 µM,MST2,< 50%
same,inhibition at 10 µM,DAPK2,< 50%
same,Percent Competition,ULK3,<50%
same,inhibition at 10 µM,FLT3(N841I),< 50%
same,Percent Competition,[2],<50%
same,inhibition at 10 µM,PKN1,< 50%
same,inhibition at 10 µM,MAP3K4,< 50%
same,Percent Competition,FLT3(ITD),<50%
